In ChEMBL document CHEMBL1201862, “PubChem BioAssay data set” (2004):
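Five concentrations, 48 hours, 96-well plates. GI50 marks 50% less growth.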 Calls of active or inactive are those of the source. Rule as the data show it: active = GI50 up to about 1.1 µM and inactive = higher.

Columns and labels:
Assay in all cases: NCI-60 cell line screen, 48 h
HCT-15 = tested on: HCT-15
SNB-19 = tested on: SNB-19
TK-10 = tested on: TK-10
NCI-H226 = tested on: NCI-H226
SN12C = tested on: SN12C
UO-31 = tested on: UO-31
786-0 = tested on: 786-0
HL-60 = tested on: HL-60
PC-3 = tested on: PC-3
EKVX = tested on: EKVX
DU-145 = tested on: DU-145
U-251 = tested on: U-251
IGROV-1 = tested on: IGROV-1
MDA-MB-231 = tested on: MDA-MB-231
A498 = tested on: A498
Hs-578T = tested on: Hs-578T
T47D = tested on: T47D
Malme-3M = tested on: Malme-3M
SK-OV-3 = tested on: SK-OV-3
HCC 2998 = tested on: HCC 2998

SMILES | GI50 (HCT-15) [µM] | GI50 (SNB-19) | GI50 (TK-10) | GI50 (NCI-H226) | GI50 (SN12C) | GI50 (UO-31) | GI50 (786-0) | GI50 (HL-60) | GI50 (PC-3) | GI50 (EKVX) | GI50 (DU-145) | GI50 (U-251) | GI50 (IGROV-1) | GI50 (MDA-MB-231) | GI50 (A498) | GI50 (Hs-578T) | GI50 (T47D) | GI50 (Malme-3M) | GI50 (SK-OV-3) | GI50 (HCC 2998)
COc1ccc2nccc(SCC(=O)O)c2c1 | > 100 | > 100 µM (inactive) | > 100 µM (inactive) | > 100 µM (inactive) | > 100 µM (inactive) | > 100 µM (inactive) | > 100 µM (inactive) | > 100 µM (inactive) | > 100 µM (inactive) | > 100 µM (inactive) | > 100 µM (inactive) | > 100 µM (inactive) | > 100 µM (inactive) | > 100 µM (inactive) | > 100 µM (inactive) | > 100 µM (inactive) | > 100 µM (inactive) | – | – | –
CCn1c(-c2ccc(/N=N/Nc3ccc(-c4n[nH]c(=S)n4CC)cc3)cc2)n[nH]c1=S | 3.03 | 2.55 µM (inactive) | 4.92 µM (inactive) | 2.24 µM (inactive) | 3.02 µM (inactive) | 2.33 µM (inactive) | 4.24 µM (inactive) | 2.93 µM (inactive) | 2.75 µM (inactive) | 2.41 µM (inactive) | 2.87 µM (inactive) | 2.57 µM (inactive) | 3.09 µM (inactive) | 4.2 µM (inactive) | 3.3 µM (inactive) | 3.15 µM (inactive) | 0.861 µM (active) | 2.57 µM (inactive) | 3.33 µM (inactive) | –
O=C1c2scc(-c3ccc(F)cc3)c2-n2cccc21 | 32.1 | 19.8 µM (inactive) | 45.3 µM (inactive) | 28.1 µM (inactive) | 20.6 µM (inactive) | 8.99 µM (inactive) | 15.7 µM (inactive) | – | 29.9 µM (inactive) | 24.4 µM (inactive) | 88.1 µM (inactive) | 15.7 µM (inactive) | 18.3 µM (inactive) | 24.7 µM (inactive) | 1.47 µM (inactive) | 20.3 µM (inactive) | 13.6 µM (inactive) | 52.1 µM (inactive) | 40.6 µM (inactive) | 23.5 µM (inactive)
O=C1NC(N2CCCC(CO)C2)=N/C1=C\c1ccccc1 (stereo not drawn) | > 100 | > 100 µM (inactive) | > 100 µM (inactive) | > 100 µM (inactive) | > 100 µM (inactive) | > 100 µM (inactive) | > 100 µM (inactive) | > 100 µM (inactive) | > 100 µM (inactive) | > 100 µM (inactive) | > 100 µM (inactive) | > 100 µM (inactive) | > 100 µM (inactive) | > 100 µM (inactive) | – | > 100 µM (inactive) | > 100 µM (inactive) | > 100 µM (inactive) | > 100 µM (inactive) | > 100 µM (inactive)
Cc1cccc2c(N)c3cccc(C(=O)NCC[N+](C)(C)Cc4ccc([N+](=O)[O-])s4)c3nc12 | 3.74 | 3.22 µM (inactive) | 20.4 µM (inactive) | 6.68 µM (inactive) | 0.424 µM (active) | 11.4 µM (inactive) | 1.98 µM (inactive) | – | 7 µM (inactive) | 14.1 µM (inactive) | 9.1 µM (inactive) | 2.91 µM (inactive) | 2.85 µM (inactive) | 4.42 µM (inactive) | 4.65 µM (inactive) | 8.51 µM (inactive) | 13.6 µM (inactive) | 8.2 µM (inactive) | 19.6 µM (inactive) | 11.1 µM (inactive)
COc1ccc(/C=N/n2c(Cc3ccccc3)n[nH]c2=O)c(OC)c1 | > 100 | 28.2 µM (inactive) | 27.3 µM (inactive) | 33.8 µM (inactive) | > 100 µM (inactive) | > 42.8 µM (inactive) | 31 µM (inactive) | – | > 100 µM (inactive) | > 57.9 µM (inactive) | > 100 µM (inactive) | 22 µM (inactive) | 28.8 µM (inactive) | 36.7 µM (inactive) | 44.4 µM (inactive) | 11.2 µM (inactive) | > 100 µM (inactive) | 59.2 µM (inactive) | 29.2 µM (inactive) | > 77.4 µM (inactive)
O=C1/C(=C/c2ccccc2S)N=C(c2ccccc2)N1c1nc2ccc(Sc3ccccc3)cc2[nH]1 | 31.9 | 45.3 µM (inactive) | 27 µM (inactive) | – | 26.4 µM (inactive) | 36.3 µM (inactive) | 28.1 µM (inactive) | 19.8 µM (inactive) | 32.2 µM (inactive) | 46.6 µM (inactive) | 34.9 µM (inactive) | 21.3 µM (inactive) | 49.4 µM (inactive) | 26.1 µM (inactive) | 26.2 µM (inactive) | 28.2 µM (inactive) | 28.8 µM (inactive) | 37.8 µM (inactive) | 43.1 µM (inactive) | 22.7 µM (inactive)
O=Cc1ccc(-c2cc(C=O)c(-c3cccs3)[nH]2)s1 | 24.8 | 44.9 µM (inactive) | 24.4 µM (inactive) | 4.76 µM (inactive) | 53.6 µM (inactive) | 26.6 µM (inactive) | 48.4 µM (inactive) | – | 35.6 µM (inactive) | 40 µM (inactive) | 42.6 µM (inactive) | 18.7 µM (inactive) | 15.7 µM (inactive) | 29.6 µM (inactive) | 2.6 µM (inactive) | 23.4 µM (inactive) | 8.85 µM (inactive) | 46.7 µM (inactive) | 48.4 µM (inactive) | 16.6 µM (inactive)
Oc1ccc(-c2nc(-c3cccnc3)c(-c3ccc(Cl)cc3)[nH]2)cc1O | 10.3 | 13 µM (inactive) | 10.4 µM (inactive) | 16.2 µM (inactive) | 13.2 µM (inactive) | 12.8 µM (inactive) | 12 µM (inactive) | 5.05 µM (inactive) | 9.2 µM (inactive) | 18 µM (inactive) | 22 µM (inactive) | 11 µM (inactive) | 4.34 µM (inactive) | 17.3 µM (inactive) | – | 12.2 µM (inactive) | 11.4 µM (inactive) | 14 µM (inactive) | 12.4 µM (inactive) | 13.7 µM (inactive)
Cc1cc(C)c(C#N)c(SC(=S)NC(=O)c2ccccc2)n1 | > 100 | > 100 µM (inactive) | > 100 µM (inactive) | > 100 µM (inactive) | > 100 µM (inactive) | > 100 µM (inactive) | > 100 µM (inactive) | – | > 100 µM (inactive) | > 100 µM (inactive) | > 100 µM (inactive) | > 100 µM (inactive) | > 100 µM (inactive) | > 100 µM (inactive) | > 100 µM (inactive) | > 100 µM (inactive) | > 100 µM (inactive) | > 100 µM (inactive) | – | > 100 µM (inactive)
COc1ccccc1N1CCN(Cn2c(=O)oc3cccnc32)CC1 | > 100 | > 100 µM (inactive) | > 100 µM (inactive) | – | – | > 100 µM (inactive) | > 100 µM (inactive) | > 100 µM (inactive) | > 100 µM (inactive) | > 100 µM (inactive) | > 100 µM (inactive) | 90.2 µM (inactive) | > 100 µM (inactive) | > 100 µM (inactive) | > 100 µM (inactive) | > 100 µM (inactive) | > 100 µM (inactive) | > 100 µM (inactive) | > 100 µM (inactive) | > 100 µM (inactive)
O=c1oc2ncccc2n1Cc1ccc([N+](=O)[O-])cc1 | > 100 | – | > 100 µM (inactive) | > 100 µM (inactive) | > 100 µM (inactive) | 26.5 µM (inactive) | > 100 µM (inactive) | > 100 µM (inactive) | > 100 µM (inactive) | > 100 µM (inactive) | > 100 µM (inactive) | > 100 µM (inactive) | > 100 µM (inactive) | > 100 µM (inactive) | > 100 µM (inactive) | > 100 µM (inactive) | > 100 µM (inactive) | > 100 µM (inactive) | > 100 µM (inactive) | –
COc1cccc([C@@H]2C/C(=N\NC(=O)C(=O)N[C@@H](C)c3ccccc3)c3cc4c(cc3N2)OCO4)c1 | 27.4 | 35 µM (inactive) | > 100 µM (inactive) | 10.5 µM (inactive) | 42 µM (inactive) | > 100 µM (inactive) | 82 µM (inactive) | – | 98.6 µM (inactive) | 65.9 µM (inactive) | > 100 µM (inactive) | > 100 µM (inactive) | – | 67.5 µM (inactive) | 47.4 µM (inactive) | 19.7 µM (inactive) | > 100 µM (inactive) | – | > 100 µM (inactive) | 50.9 µM (inactive)
CC(=O)c1cc(C)n2c1CS[C@@H]2c1ccccc1 | 31.3 | > 100 µM (inactive) | 91 µM (inactive) | 41 µM (inactive) | 57.3 µM (inactive) | 64.3 µM (inactive) | 19.7 µM (inactive) | 34 µM (inactive) | 33.3 µM (inactive) | 34.9 µM (inactive) | 29.1 µM (inactive) | 28.4 µM (inactive) | 32.7 µM (inactive) | 43.3 µM (inactive) | > 100 µM (inactive) | > 100 µM (inactive) | 35.6 µM (inactive) | > 100 µM (inactive) | > 100 µM (inactive) | –
CCSC12OC3(CCCCCN3C1=O)C1C(=O)N(c3ccccc3)C(=O)C12 (stereo not drawn) | > 100 | > 100 µM (inactive) | > 100 µM (inactive) | > 100 µM (inactive) | > 100 µM (inactive) | > 100 µM (inactive) | > 100 µM (inactive) | > 100 µM (inactive) | > 100 µM (inactive) | > 100 µM (inactive) | > 100 µM (inactive) | > 100 µM (inactive) | > 100 µM (inactive) | > 100 µM (inactive) | > 100 µM (inactive) | > 100 µM (inactive) | > 100 µM (inactive) | > 100 µM (inactive) | > 100 µM (inactive) | –
